The results in this text go back to patent publication US20030215462A1, “Use of UGT inhibitors to increase bioavailability” (priority 2001, published 2003).

Several values for one entry are separate records, joined by “and”; a condition that tells them apart may be missing. Equal entries are not always repeated. Where two headings read alike, the source gives them in different places.

Holding throughout (assay type): biochemical
Test [1] relates to UGT enzymes of pooled human jejunum microsomes. In words: Inhibition of 2ME2 glucuronidation (MG1) in pooled human jejunum microsomes. Conditions: jejunum HJ61, 2ME2 50 μM. An excerpt: (§1) Compounds were eluted using a binary solvent gradient system where solvent A was dilute phosphoric acid (pH 3) and solvent B was 80:20 acetonitrile-methanol. […] Detection was at 280 nm.
The test system of test [2] is UGT enzymes of human liver microsomes. In words: Inhibition of raloxifene glucuronidation (G1, G2) in human liver microsomes. An excerpt:
Compounds were eluted using a binary solvent gradient system. […] Solvent B was methanol. […] Detection was at 280 nm.
Background: Liver microsomes are a subcellular fraction often used to study metabolism.

The test system of test [3] is T1, UGT enzymes of human liver microsomes.
T1 construct: other: liver 062101
In words: Inhibition of 2ME2 glucuronidation (MG1, MG2) in human liver microsomes. As to conditions: liver 062101, 2ME2 50 μM.
Description: as §1

Test [4] addresses T2, UGT enzymes of human liver microsomes (Homo sapiens, UniProt P16662).
T2 construct: residual metabolism (percentage of control), zidovudine glucuronidation; other: liver lot 062101; residual metabolism (percentage of control), zidovudine glucuronidation; residual metabolism (percentage of control)
T2 sequence (P16662 1-529): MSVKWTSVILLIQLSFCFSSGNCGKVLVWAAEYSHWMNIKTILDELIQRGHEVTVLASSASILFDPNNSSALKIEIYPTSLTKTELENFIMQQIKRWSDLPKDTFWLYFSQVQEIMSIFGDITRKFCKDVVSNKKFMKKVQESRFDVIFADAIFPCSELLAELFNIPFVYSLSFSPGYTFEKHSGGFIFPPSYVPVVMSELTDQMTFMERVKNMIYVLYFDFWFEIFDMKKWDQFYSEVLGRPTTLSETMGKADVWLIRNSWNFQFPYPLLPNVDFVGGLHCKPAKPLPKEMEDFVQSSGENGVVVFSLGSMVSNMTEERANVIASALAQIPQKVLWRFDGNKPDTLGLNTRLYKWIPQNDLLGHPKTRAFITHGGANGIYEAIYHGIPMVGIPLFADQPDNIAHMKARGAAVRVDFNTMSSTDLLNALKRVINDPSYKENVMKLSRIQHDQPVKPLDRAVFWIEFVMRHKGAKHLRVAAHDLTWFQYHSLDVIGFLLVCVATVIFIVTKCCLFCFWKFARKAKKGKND
The experiment in a line: Inhibition of zidovudine glucuronidation in human liver microsomes. As to conditions: liver lot 062101. The protocol:
Compounds were eluted using a binary solvent gradient system where solvent A was dilute phosphoric acid (pH 3) and solvent B was acetonitrile.
Standardized incubations utilized 500 μM zidovudine substrate, 1 mg/ml microsomal protein, 5 mM UDPGA and a 30 min incubation time. […] Int.

In test [5] the test system is T3, UGT enzymes of human liver microsomes.
T3 construct: percentage of control metabolism, 7-HFC glucuronidation; percentage of control metabolism, 7-HFC glucuronidation
In words: Inhibition of 7-HFC glucuronidation in human liver microsomes. Conditions: for % of control metabolism (SD, n = 3), 7-HFC glucuronidation: 7-HFC 50 μM, human liver microsomes 100 μg/ml, 15 min.

Test [6] relates to T4, UGT enzymes of human liver microsomes.
T4 construct: residual metabolism (percentage of control), labetalol LG1; other: labetalol 50 μM; residual metabolism (percentage of control), labetalol LG1; residual metabolism (percentage of control), labetalol LG2; inhi
In words: Inhibition of labetalol glucuronidation (LG1, LG2) in human liver microsomes. As to conditions: labetalol 50 μM; inhibitor 100 μM. The protocol: Supernatants were analyzed by HPLC with fluorescence detection.
Compounds were eluted using a binary solvent gradient system where solvent A was 5:5:90 tetrahydrofuran-acetonitrile-(NH4)2HPO4 50 mM, while solvent B was 25:25:50 tetrahydrofuran-acetonitrile-(NH4)2HPO4 50 mM. Solvent flow rate was 0.75 ml/min and the column temperature was ambient. […] Labetalol and metabolites were measured by fluorescence detection using a Jasco model FP920 detector. Excitation and emission wavelengths were 370 nm 418 nm respectively. Retention times for salicylamide internal standard and labetalol were 6.6 min and 15.0 min respectively.

The mark [7] stands for this setting: G1, inhibitor 500 μM, raloxifene 50 μM, human liver microsomes 250 μg/ml, 15 min.
[8] abbreviates: G2, inhibitor 500 μM, raloxifene 50 μM, human liver microsomes 250 μg/ml, 15 min.

For `O=C1C[C@@H](c2ccc(O)cc2)Oc2cc(O)cc(O)c21` [Naringenin], the “residual metabolism (% of control), 2ME2 MG1” value is recorded as 78 (2) % in test [1] (inhibitor 50 μM); 79 (5) % in test [1] (inhibitor 100 μM); 76 (1) % in test [3] (inhibitor 25 μM); 47 (3) % in test [3] (inhibitor 50 μM); 21 (4) % in test [3] (inhibitor 100 μM). Further, the “% of control metabolism (SD, n = 3), raloxifene glucuronide G1” value in test [2] (G1, inhibitor 50 μM, raloxifene 50 μM, human liver microsomes 250 μg/ml, 15 min) is 54 (4) %; in test [2] (G1, inhibitor 100 μM, raloxifene 50 μM, human liver microsomes 250 μg/ml, 15 min) it was 34 (2) %. The “% of control metabolism (SD, n = 3), raloxifene glucuronide G2” value in test [2] (G2, inhibitor 50 μM, raloxifene 50 μM, human liver microsomes 250 μg/ml, 15 min) is reported as 71 (9) %; in test [2] (G2, inhibitor 100 μM, raloxifene 50 μM, human liver microsomes 250 μg/ml, 15 min), 40 (2) %. Also, the “residual metabolism (% of control), 2ME2 MG2” value in test [3] (inhibitor 25 μM) is on record as 53 (4) %; in test [3] (inhibitor 50 μM) it was 26 (5) %; in test [3] (inhibitor 100 μM), 19 (0) %. For the same compound, the “residual metabolism (percentage of control), zidovudine glucuronidation” value was 64 (3) % in test [4] (inhibitor 200 μM); 48 (7) % and 34 (4) % in test [4] (inhibitor 500 μM); 15 (3) % in test [4] (inhibitor 1000 μM). In addition, the “% of control metabolism (SD, n = 3), 7-HFC glucuronidation” value in test [5] (inhibitor 500 μM) was 63 (1) %.

In the case of `Cc1ccc(C(C)C)cc1O` [Carvacrol], the “% of control metabolism (SD, n = 3), raloxifene glucuronide G1” value in test [2] was 37 (1) % and 64 (1) %. For the same compound, in test [2], the “% of control metabolism (SD, n = 3), raloxifene glucuronide G2” value is 33 (0) % and 60 (1) %. The “residual metabolism (percentage of control), zidovudine glucuronidation” value in test [4] (inhibitor 100 μM) is 94 (1) %; in test [4] (inhibitor 200 μM), 75 (3) %; in test [4] (inhibitor 500 μM) it was 50 (3) % and 45 (0) %; in test [4] (inhibitor 1000 μM), 20 (1) %. In addition, the “percentage of control metabolism, 7-HFC glucuronidation” value in test [5] (inhibitor 100 μM) is 79 (1) %; in test [5] (inhibitor 200 μM), 63 (0) %; in test [5] (inhibitor 500 μM) it was 31 (1) %. Moreover, the “% of control metabolism (SD, n = 3), 7-HFC glucuronidation” value is listed as 79 (1) % in test [5] (inhibitor 100 μM), 63 (0) % in test [5] (inhibitor 200 μM) and 31 (1) % in test [5] (inhibitor 500 μM).

In the case of `Oc1cc(O)c2c(c1)O[C@H](c1cc(O)c(O)c(O)c1)[C@H](O)C2` [Epigallocatechin], in test [2] (setting [7]), the “% of control metabolism (SD, n = 3), raloxifene glucuronide G1” value is 65 (4) %. Besides, the “% of control metabolism (SD, n = 3), raloxifene glucuronide G2” value in test [2] (setting [8]) is recorded as 79 (4) %. For the same compound, the “residual metabolism (percentage of control), labetalol LG1” value in test [6] was 96 (7) %. The “residual metabolism (percentage of control), labetalol LG2” value in test [6] is reported as 87 (5) %. In addition, the “residual metabolism (percentage of control), zidovudine glucuronidation” value in test [4] (inhibitor 500 μM) is given as 90 (3) %. Moreover, the figures for the “% of control metabolism (SD, n = 3), 7-HFC glucuronidation” value in test [5] (inhibitor 100 μM), in test [5] (inhibitor 200 μM) and in test [5] (inhibitor 500 μM) were 77 (1) %, 90 (1) % and 81 (4) %, respectively.

With `C[C@]12CC[C@@H]3c4ccc(O)cc4CC[C@H]3[C@@H]1CC[C@@H]2O` [E2, 17-β-estradiol, reference compound], the “% of control metabolism (SD, n = 3), raloxifene glucuronide G1” value in test [2] (setting [7]) was 39 (1) %. Moreover, the “% of control metabolism (SD, n = 3), raloxifene glucuronide G2” value in test [2] (setting [8]) is listed as 56 (2) %. Also, the “residual metabolism (percentage of control), zidovudine glucuronidation” value is 50 (1) % in test [4] (inhibitor 50 μM); 28 (1) % in test [4] (inhibitor 100 μM); 24 (0) % in test [4] (inhibitor 200 μM); 29 (1) % and 24 (2) % in test [4] (inhibitor 500 μM). For the same compound, in test [5] (inhibitor 500 μM), the “% of control metabolism (SD, n = 3), 7-HFC glucuronidation” value is listed as 80 (2) %.
